Test results published in patent US12465588B2, “Indole carboxamide derivative and pharmaceutical composition containing same” (KUKJE PHARMA CO., LTD., priority 2019, dated 2025).
Marks after values point to notes of the source that are not given here.

How the values were obtained:
[1] = tested on: PGE2, IL-1β, and TNF-α in blood; experiment: Inflammatory factor evaluation (ELISA) in blood of MIA osteoarthritis guinea pigs; format: in vivo, guinea pig; settings: for IL-1β (ELISA analysis) / PGE2 (ELISA analysis) / TNF-α (ELISA analysis): blood, after 4 weeks
Method: (§1) Specifically, male guinea pigs weighing about 500 g±20% from Coretech Co., Ltd. (Gyeonggi-do, Korea) were acclimated in a laboratory for 8 days, and provided chow and water ad libitum. Temperature (23±3° C.), humidity (55±15%) and light/dark cycle (12 hours, 08:00˜20:00) were controlled automatically.
(§2) Each group consisted of 10 guinea pigs. Guinea pigs were anesthetized with Zoletil 50 (VIRBAC, France, 5 mg/kg) and xylazine (Rompun®, Bayer AG, Germany, 2.5 mg/kg) and depilated at the area around the right knee with Clipper. Using a C-arm (ARCADIS Varic, SIEMENS Co.), it was confirmed that a syringe equipped with a 26 gauge needle was located in the joint cavity. 50 μL of MIA at a concentration of 60 mg/mL was administered into the joint cavity. One week after MIA administration, Compound 9 of the present invention was added to excipients (DMSO (10% by weight), Tween 80 (30% by weight), HMPC (same amount as the drug)), dissolved in water so that the total amount was 100% by weight, and orally administered to the prepared experimental animals at 10 mg/kg and 25 mg/kg, respectively. In the positive control group, GRC27864 was orally administered at 12.5 mg/kg using the same excipient, and only the excipient was orally administered to the control group. The drug was administered for 4 weeks.
(§3) The hind limb incapacitance test was performed for the behavioral evaluation weekly for 4 weeks and the inflammatory factor evaluation was performed by measuring PGE2, IL-1β, and TNF-α in blood after 4 weeks.
The concentrations of PGE2, IL-1β, and TNF-α in blood were measured using commercially available ELISA kit after 4 weeks. The results are shown in Table 4 below and FIGS. 2 to 4. ***, ** and * represent statistical significance compared to the control group, and are P<0.001, P<0.01, and P<0.05 compared to the control group.

[2] = tested on: guinea pig model of osteoarthritis induced by MIA (monosodium iodoacetate); experiment: Hind limb incapacitance test in guinea pig model of osteoarthritis induced by MIA; format: in vivo
Method: An experiment was conducted as follows in order to evaluate the efficacy of the compound according to the present invention for osteoarthritis-induced guinea pigs.
as §1, §2, §3
The hind limb weight-bearing ratios were obtained by setting up the animals at an inclination of 60 degrees in a plastic room using an incapacitance meter tester, measuring the intensity applied to each hind limb over 10 seconds, and calculating an average. Weight-bearing ratios are 50% for normal cases and up to early 30% for the cases in which a disease is induced.

[3] = tested on: acetic acid-induced abdominal contraction mouse model; experiment: Anti-pain efficacy test, acetic acid-induced abdominal contraction mouse model; format: in vivo; settings: oral, 1 hour before 0.7% acetic acid i.p.; writhing counted for 10 minutes (FIG. 5)
Method: In order to evaluate the anti-pain efficacy of the compound according to the present invention in abdominal contraction mice, an experiment was conducted as follows.
Specifically, male ICR mice weighing about 20 to 25 g from Orient Bio Co., Ltd. (Gyeonggi-do, Korea) were acclimated in a laboratory for 7 days and provided chow and water ad libitum. Temperature (20±2° C.), humidity (40±60%) and light/dark cycle (12 hours) were controlled automatically.
Based on 10 mice per group, the control group was orally administered with an excipient (200 μL), and the positive control group was orally administered with celecoxib at 25 mg/kg. Compound 9 of the present invention was dissolved in an excipient (10% NMP (N-methyl-2-pyrrolidone), 10% ethanol, 80% polyethylene glycol 400) and administered orally at 10 and 50 mg/kg to each mouse. One hour after drug administration, 0.7% acetic acid was intraperitoneally injected at […] to induce pain. The number of writhing was measured for 10 minutes from 10 minutes after the acetic acid administration.
In this experiment, the less the number of writhing for 10 minutes, the stronger the anti-pain efficacy of the drug was evaluated. The statistical significance compared to the control group was represented as **P<0.01, *P<0.05 compared to the control group.

[4] = tested on: A549 human lung cancer cells; experiment: Measurement of PGE2 in IL-1β-treated A549 human lung cancer cells; format: cell-based; settings: PGE2 production, A549 cell, IL-1β 1 ng/mL, 48 hours
Method: Samples at various concentrations were added at 24 hours after A549 human lung cancer cells were seeded. After 1 hour, IL-1β of 1 ng/mL was added. The cells were cultured for 48 hours and then the culture supernatant was collected. PGE2 of the collected supernatant was measured according to the manufacturer's instructions using a PGE2 EIA kit.

For `CC(C)C(=O)NCc1ccc(Cl)c(C(=O)Nc2ccc3c(c2)cc(C(=O)Nc2ccc(OC(F)(F)F)cc2)n3C)c1` [Compound 9, 5-(2-chloro-5-(isobutyramidomethyl)benzamido)-1-methyl-N-(4-(trifluoromethoxy)phenyl)-1H-indole-2-carboxamide], the “inhibitory ability on inflammatory factors, in words” value ([1]; 25 mpk, compared with GRC27864 group) was “inhibited the inflammatory factor more than the group administered with the drug GRC27864”, the “IL-1β (ELISA analysis)” value ([1]; 10 mpk oral) was 41.547 ± 10.683 and the “PGE2 (ELISA analysis)” value ([1]; 10 mpk oral) was 9331.6 ± 2215.6. For the same compound, the “TNF-α (ELISA analysis)” value ([1]; 10 mpk oral) was 119.715 ± 22.898, the “IL-1β (ELISA analysis)” value ([1]; 25 mpk oral) was 34.345 ± 11.786 and the “PGE2 (ELISA analysis)” value ([1]; 25 mpk oral) was 5812.4 ± 1758.8***. For the same compound, the “TNF-α (ELISA analysis)” value ([1]; 25 mpk oral) was 94.833 ± 22.453**, the Weight-bearing ratio ([2]; 10 mpk oral, day 0) was 42.05 ± 2.99% and the Weight-bearing ratio ([2]; 10 mpk oral, day 7) was 39.64 ± 5.30%. It also gave a Weight-bearing ratio ([2]; 10 mpk oral, day 14) of 39.53 ± 6.41%, a Weight-bearing ratio ([2]; 10 mpk oral, day 21) of 40.16 ± 2.92% and a Weight-bearing ratio ([2]; 10 mpk oral, day 28) of 38.42 ± 1.52%. For the same compound, the Weight-bearing ratio ([2]; 25 mpk oral, day 0) was 39.15 ± 4.53%, the Weight-bearing ratio ([2]; 25 mpk oral, day 7) was 42.39 ± 3.69% and the Weight-bearing ratio ([2]; 25 mpk oral, day 14) was 40.65 ± 3.61%. For the same compound, the Weight-bearing ratio ([2]; 25 mpk oral, day 21) was 39.19 ± 3.15%, the Weight-bearing ratio ([2]; 25 mpk oral, day 28) was 39.28 ± 4.14% and the “weight-bearing ratios, course in words” value ([2]; over 4 weeks of oral administration after MIA) was “did not worsen after MIA administration but were maintained”. For the same compound, the “number of writhing compared to the control group” value [3] was “significantly lower number of writhing compared to the control group” and the IC50 [4] was 7.16 nM.
